What all share (assay): NCI anticancer screen, dose series, 48 h
In assay [1] the test system is A498 renal.
Assay [2] deals with K-562 leukemia.
Assay [3] deals with MALME-3M melanoma.
For assay [4], the system named is MDA-MB-231 breast.
Assay [5] has as its system MOLT-4 leukemia.
The subject of assay [6] is OVCAR-4 ovarian.
Assay [7] relates to UACC-62 melanoma.
Assay [8] relates to UO-31 renal.
The test system of assay [9] is SNB-19 CNS.
The subject of assay [10] is SR leukemia.

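Test compounds were applied to cells in 96-well plates for 48 hours at 5 doses. The concentration for 50% growth inhibition is given as GI50. Definition used: TGI = concentration required for complete inhibition of growth.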

Turning to `NC(Cc1ccc(S(=O)(=O)O)cc1)C(=O)NC(Cc1ccc(S(=O)(=O)O)cc1)C(=O)O` (stereo not drawn), the TGI in assay [1], in [2], in assay [3], in assay [4], in assay [5] and in assay [6] was above 100 µM throughout. The TGI in assay [7] and in assay [8] was above 100 µM in each case.
Take `Cc1cc(=O)[nH]c(NN2C(Cl)C(=O)C2c2cccc(Cl)c2)n1` (stereo not drawn): the TGI came out at 65.8 µM in assay [2]; 40.7 µM in assay [5]; 97 µM in assay [6]; 92.6 µM in [9]; 44.3 µM in [10]; 87.2 µM in assay [7]. Besides, the TGI in assay [8] amounted to 87.6 µM.
Turning to `Cc1ccc(NC(=O)C(=O)CC(=O)c2sc(Nc3c(C)cccc3C)nc2C)cc1C`, the TGI in assay [2], in assay [4], in assay [5], in [6], in assay [9] and in assay [10] was above 100 µM each time. In addition, the TGI in assay [7] and in assay [8] was above 100 µM each time.
For the compound `C[C@H](C/C=C/C(C)(C)O)[C@H]1CC[C@@]2(C)[C@@H]3CC[C@H]4C(C)(C)[C@@H](O)CC[C@@]45C[C@@]35CC[C@]12C`, the TGI in assay [1] turned out to be 40.8 µM; in [2], 70.3 µM; in assay [4], 33.2 µM; in assay [5] it was 32.8 µM; in [6], 43.6 µM; in [9], 54.9 µM. Moreover, the TGI in [7] turned out to be 56 µM; in [8] it was 53.6 µM.
Consider `CC(C)C1N(C)c2ccc(Cl)cc2[C@H]2c3ccccc3CCN12` (stereo partly drawn), for which the TGI in assay [1] is above 100 µM; in assay [2], above 100 µM; in assay [4] it was 96.2 µM; in assay [5], above 100 µM; in assay [6] it was above 100 µM; in [9], above 100 µM. In addition, the TGI in assay [10], in assay [7] and in assay [8] was above 100 µM each time.
Consider `NNC(=O)c1cc(=O)[nH][nH]1`, for which the TGI in [2], in assay [3], in assay [4], in [5], in assay [6] and in [9] was above 100 µM throughout. The TGI in assay [7] and in assay [8] was above 100 µM throughout.
Turning to `CC(C)(C)OC(=O)NCCCCC(NC(=O)c1ccccc1)C(N)=O` (stereo not drawn), the TGI in assay [1], in assay [2], in [3], in [4], in assay [5] and in assay [6] was above 100 µM each time. The TGI in assay [9], in assay [7] and in [8] was above 100 µM in each case.
Consider `Cc1nc2c(=S)n(C)ncc2[nH]1`, for which the TGI in assay [1] is above 100 µM; in [2], above 100 µM; in assay [3], 69.7 µM; in assay [4] it was above 100 µM; in assay [5], above 100 µM; in [6] it was above 100 µM. Besides, the TGI in assay [7] and in assay [8] was above 100 µM each time.
For the compound `CCOC(=O)C1=COC(C)(CCc2ccccc2)CC1=O` (stereo not drawn), the TGI in [1], in [2], in assay [4], in assay [5], in [6] and in assay [9] was above 100 µM in each case. Besides, the TGI in [7] and in [8] was above 100 µM each time.
Turning to `Cc1nc2ccccc2c(/C=C/c2ccc(Cl)cc2)c1C(=O)/C=C/c1ccc(Cl)cc1`, the GI50 in assay [2] is 1.28 µM; in assay [5], 0.788 µM; in assay [9], 1.57 µM; in assay [10], 0.609 µM; in [7], 1.59 µM; in assay [8], 1.06 µM. The TGI in [2] is above 100 µM; in assay [5] it was above 100 µM; in [9], 2.94 µM; in assay [10], above 100 µM; in [7], 3.27 µM; in assay [8], 2.25 µM.
Regarding `N#C/C(=C/NC(=S)c1ccncc1)C(N)=O`, the TGI in assay [1], in assay [4], in [5], in assay [6], in [9] and in [7] was above 100 µM in each case. In assay [8], this compound displayed a TGI above 100 µM.
On to `O=C1Nc2ccccc2Nc2ccncc21`, for which the TGI in [1], in assay [2], in assay [3], in assay [5], in assay [6] and in assay [9] was above 100 µM in each case. Further, the TGI in assay [7] and in assay [8] was above 100 µM throughout.
For `CC(=O)[CH-]C(=O)c1ccccc1.CC(=O)[CH-]C(=O)c1ccccc1.C[C@]12CCC(=O)C=C1CC[C@@H]1C2CC[C@@]2(C)C1CC[C@]2(C)[O-].C[C@]12CCC(=O)C=C1CC[C@@H]1C2CC[C@@]2(C)C1CC[C@]2(C)[O-].Cl.[Ti+4]` (stereo partly drawn), the GI50 in assay [1] was 15.3 µM; in [2], 3.76 µM; in assay [3] it was 13.2 µM; in assay [5] it was 12.5 µM; in [6], 42.7 µM; in assay [9] it was 14 µM. For the same compound, the GI50 in assay [7] was 12.8 µM; in assay [8], 24.2 µM. Further, the TGI in [1] is 31.1 µM; in [2] it was above 100 µM; in assay [3], 37.1 µM; in assay [5], above 100 µM; in [6], above 100 µM; in [9], 29.3 µM. In addition, the values for the TGI in [7] and in [8] were 42.9 µM and 85.3 µM, respectively.
Turning to `O=C(NC(=S)NC(=O)c1cc(O)c(O)c(O)c1)c1cc(O)c(O)c(O)c1`, the TGI in assay [1] was above 100 µM; in [4] it was 74.1 µM; in [6] it was 46.1 µM; in assay [9], 52.8 µM; in assay [10], above 100 µM; in assay [7], 49.4 µM. In [8], this compound gave a TGI of 44.1 µM.
As for `Cc1ccccc1NC(=O)Cc1csc2[n+]1C(=O)/C(=C/c1ccc([N+](=O)[O-])cc1)S2`, the TGI in assay [4] was above 100 µM; in [5], above 100 µM; in assay [6], 35.3 µM; in assay [9], above 100 µM; in [8], 85.5 µM.
